The source of these data is article PMC4710522, “A Novel Triazolopyridine-Based Spleen Tyrosine Kinase Inhibitor That Arrests Joint Inflammation” (PLoS ONE, 2016).

Assay [1] concerns FcγR-induced TNFα production in primary human macrophage. Briefly: primary human macrophage assay, anti-IgG stimulated TNF secretion. It is filed as cell-based. The protocol:
Mobilized CD14-positive monocytes were plated in 96-well flat bottom plates in RPMI media supplemented with 100 ng/ml GM-CSF for 5 days. The plates were preincubated with CC-509 at indicated concentrations for 30 minutes. Biotinylated anti-IgG and streptavidin at 10 μg/ml final concentrations were thoroughly mixed, added to appropriate wells on the cell plate, and plate placed back in tissue culture incubator 8 hours. Following incubation, supernatants were collected and processed for TNFα Mesoscale single-plex cytokine assay as described by manufacturer (Mesoscale, Gaithersberg, MD). Briefly, the plates were incubated with sample or calibrator for 2 hours on an orbital shaker at room temperature. The detection antibody was added to all wells, the plate incubated for 2 hours at room temperature on an orbital shaker, and washed three times. Diluted Mesoscale detection solution was added to all wells and the plates were read on the Sector Imager instrument (Mesoscale, Gaithersberg, MD) plate reader.
For the TEL-Syk assay, the intensity values for the 700 and 800 channel were exported as text files in ActivityBase (IDBS, Guildford, UK) to derive the ratios that reflect kinase activity. For LAD2 experiments, enzyme activity values were exported as text files into ActivityBase to calculate “percent release” according to the formula: 100* supernatant OD405/ (supernatant OD405 + (pellet OD405*pellet dilution factor)). For the basophil and B-cells assays, flow cytometry data was exported from the FACS Array and processed using FloJo software package (TreeStar, Inc., Ashland, Oregon). For the JAK2 HEL and Ramos NFAT β-lactamase assays, the fluorescence values obtained at 460 nm and 530 nm were exported into ActivityBase to calculate response ratios. […] Evans blue dye extravasation was expressed as mean ± SEM and % inhibition for the test article groups was normalized to the cromolyn positive control. […] The mean data from each group was plotted and either the AUC(day 11–18) or % inhibition on day 18 was calculated. Data is expressed as mean ± SEM of each group with n = 6–12. […]

Another assay deals with T1, FGFR4_h (Homo sapiens, UniProt P22455).
T1 construct: purchased Life Technologies (Invitrogen) SelectScreen, Z'-LYTE / Adapta
T1 sequence (P22455 22-802): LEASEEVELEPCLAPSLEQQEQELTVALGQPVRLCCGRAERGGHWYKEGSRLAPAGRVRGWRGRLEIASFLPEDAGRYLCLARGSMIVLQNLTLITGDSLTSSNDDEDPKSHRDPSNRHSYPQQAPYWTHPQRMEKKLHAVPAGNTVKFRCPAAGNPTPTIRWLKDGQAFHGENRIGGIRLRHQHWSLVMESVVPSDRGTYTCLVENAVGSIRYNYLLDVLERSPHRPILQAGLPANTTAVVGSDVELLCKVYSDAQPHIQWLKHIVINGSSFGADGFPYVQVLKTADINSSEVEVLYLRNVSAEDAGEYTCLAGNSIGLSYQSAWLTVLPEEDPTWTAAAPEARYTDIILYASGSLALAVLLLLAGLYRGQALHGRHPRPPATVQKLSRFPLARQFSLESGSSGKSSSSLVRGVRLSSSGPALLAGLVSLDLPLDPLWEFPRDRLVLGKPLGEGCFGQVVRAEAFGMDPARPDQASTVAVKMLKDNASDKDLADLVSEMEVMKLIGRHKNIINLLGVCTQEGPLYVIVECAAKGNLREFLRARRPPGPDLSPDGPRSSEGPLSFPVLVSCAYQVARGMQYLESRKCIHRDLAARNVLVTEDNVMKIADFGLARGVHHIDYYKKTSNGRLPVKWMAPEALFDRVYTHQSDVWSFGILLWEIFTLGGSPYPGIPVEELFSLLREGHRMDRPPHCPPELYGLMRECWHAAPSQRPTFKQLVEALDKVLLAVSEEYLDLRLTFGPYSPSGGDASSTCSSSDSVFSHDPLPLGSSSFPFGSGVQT
Briefly: SelectScreen kinase assay. It is filed as biochemical. The note with it: KM ATP, read-out: % control.

The next assay concerns the target T2, Rsk1_h (Homo sapiens, UniProt Q15418).
T2 construct: purchased Life Technologies (Invitrogen) SelectScreen, Z'-LYTE / Adapta
Briefly: SelectScreen kinase assay. To be noted: KM ATP, read-out: % control. It is filed as biochemical.

Assay [2] concerns basophil activation in human whole blood. Briefly: basophil human whole blood assay (CD63). It is filed as cell-based. On the procedure: Assay was conducted according to the protocol for the BasoTest kit provided by supplier (Biocarta, San Diego, CA), with slight modification. Briefly, 100μl of heparinized human whole blood was added to each well of a 24-well deep plate (Microliter Analytical Supplies, Suwanee, GA) and preincubated with CC-509 for 30 minutes in a 37°C water bath. Basophils were stimulated with mite or dust extract (included in kit), or anti-IgE (diluted 1:10,000) for 20 minutes in a 37°C water bath and then on ice for 5 minutes. Cells were incubated in the FcεR receptor and CD63 antibody staining solution (included in kit) for 20 minutes on ice followed by agitation in a fixative/ red blood cell lysis buffer (included in kit) for 10 minutes at room temperature. Cells were washed twice with Basosalt solution (included in kit) and the final cell suspensions was transferred to U-bottom 96-well plates (BD Falcon, San Diego, CA) for analysis by flow cytometry on the FACSArray Bioanalyzer (BD Biosciences, San Jose, CA). Standard gating methods were used to identify basophils and to measure the mean intensity of CD63 fluorescence. FCS files were exported and analyzed as described in the Data Analysis section.
For the TEL-Syk assay, the intensity values for the 700 and 800 channel were exported as text files in ActivityBase (IDBS, Guildford, UK) to derive the ratios that reflect kinase activity. For LAD2 experiments, enzyme activity values were exported as text files into ActivityBase to calculate “percent release” according to the formula: 100* supernatant OD405/ (supernatant OD405 + (pellet OD405*pellet dilution factor)). For the basophil and B-cells assays, flow cytometry data was exported from the FACS Array and processed using FloJo software package (TreeStar, Inc., Ashland, Oregon). For the JAK2 HEL and Ramos NFAT β-lactamase assays, the fluorescence values obtained at 460 nm and 530 nm were exported into ActivityBase to calculate response ratios. For the neutrophil, macrophage, KDR, and JAK1/3 assays, raw values were exported into ActivityBase to calculate percent inhibition. All IC50 calculations were generated using XLfit (IDBS, Guildford, UK) algorithm 205 within Excel. For PCA, the OD from the saline injected site was subtracted from the OD from the anti-DNP IgE injected site. Evans blue dye extravasation was expressed as mean ± SEM and % inhibition for the test article groups was normalized to the cromolyn positive control. For the CIA model paw measurements (left and right ankle diameter) were taken for each individual animal and averaged. The mean data from each group was plotted and either the AUC(day 11–18) or % inhibition on day 18 was calculated. Data is expressed as mean ± SEM of each group with n = 6–12. […]

Assay [3] deals with primary human neutrophils. Kind of assay: primary human neutrophils, opsonized zymosan-stimulated superoxide release. The format is cell-based. To be noted: opsonized zymosan stimulation, read-out: IC50, release of superoxide anions. On the procedure: Cells were purified from EDTA-treated human whole blood using Polymorphprep (VWR, Radnor, PA) according to the protocol provided by the supplier. Eosinophils were further purified using an Eosinophil Kit (Miltenyi, Auburn, CA) according to manufacturer’s instructions. Neutrophil and eosinophil cell pellets were incubated in phenol red-free RPMI (Life Technologies, Grand Island, NY) for 30 minutes, washed in Kreb’s Ringer buffer, and plated in 96-well white opaque plates (Perkin Elmer, Foster City, CA) for luminescence. […] Neutrophils were activated with 0.5 mg/mL final concentration of opsonized zymosan, incubated for 30 minutes at room temperature in the dark, and then read on an Envision 2104 Multilabel Reader (Perkin Elmer, Foster City, CA). […] For eosinophils, cells were stimulated with IL-3 (200 pM, R&D Systems, Minneapolis, MN) for 24 hours at which point supernatants were collected and assessed for MCP-1 (Mesoscale).
For the TEL-Syk assay, the intensity values for the 700 and 800 channel were exported as text files in ActivityBase (IDBS, Guildford, UK) to derive the ratios that reflect kinase activity. […] For the JAK2 HEL and Ramos NFAT β-lactamase assays, the fluorescence values obtained at 460 nm and 530 nm were exported into ActivityBase to calculate response ratios. […] The mean data from each group was plotted and either the AUC(day 11–18) or % inhibition on day 18 was calculated. […]

The target in the next assay is T3, PDE5 (Homo sapiens, UniProt O76074).
T3 construct: purchased CEREP (contract assay)
Kind of assay: non-kinase enzyme panel (CEREP). The format is biochemical. On the procedure:
(§1) Syk kinase mode of inhibition studies, including parameters described in Fig 1, were conducted on the LC3000 platform by Caliper Life Sciences (Hopkinton, MA) according to standard protocols developed by the supplier. […] Non-kinase enzyme assays and GPCR, ion channel, and transporter binding assays were run by CEREP (France). Non-GLP manual patch clamp hERG assays were run by ChanTest (Cleveland, Ohio). Vivid® Assay kits (Life Technologies) were used to measure the cytochrome P450 inhibition of the compound against CYP3A, CYP2C9, CYP2C19, CYP2D6, and CYP1A2, as described.

A further assay addresses T4, PDE2A (Homo sapiens, UniProt O00408).
T4 construct: purchased CEREP (contract assay)
Briefly: non-kinase enzyme panel (CEREP). It is filed as biochemical. On the procedure: as §1

Each structure is given as a SMILES string. Where two headings read alike, the source gives them in different places.

By IC50 is commonly meant the concentration that gives 50% inhibition. What is called inhibition is the relative decrease from the control value, in per cent. Lower therefore signals a response near the control.

T4 sequence (O00408 whole entry, species assumed): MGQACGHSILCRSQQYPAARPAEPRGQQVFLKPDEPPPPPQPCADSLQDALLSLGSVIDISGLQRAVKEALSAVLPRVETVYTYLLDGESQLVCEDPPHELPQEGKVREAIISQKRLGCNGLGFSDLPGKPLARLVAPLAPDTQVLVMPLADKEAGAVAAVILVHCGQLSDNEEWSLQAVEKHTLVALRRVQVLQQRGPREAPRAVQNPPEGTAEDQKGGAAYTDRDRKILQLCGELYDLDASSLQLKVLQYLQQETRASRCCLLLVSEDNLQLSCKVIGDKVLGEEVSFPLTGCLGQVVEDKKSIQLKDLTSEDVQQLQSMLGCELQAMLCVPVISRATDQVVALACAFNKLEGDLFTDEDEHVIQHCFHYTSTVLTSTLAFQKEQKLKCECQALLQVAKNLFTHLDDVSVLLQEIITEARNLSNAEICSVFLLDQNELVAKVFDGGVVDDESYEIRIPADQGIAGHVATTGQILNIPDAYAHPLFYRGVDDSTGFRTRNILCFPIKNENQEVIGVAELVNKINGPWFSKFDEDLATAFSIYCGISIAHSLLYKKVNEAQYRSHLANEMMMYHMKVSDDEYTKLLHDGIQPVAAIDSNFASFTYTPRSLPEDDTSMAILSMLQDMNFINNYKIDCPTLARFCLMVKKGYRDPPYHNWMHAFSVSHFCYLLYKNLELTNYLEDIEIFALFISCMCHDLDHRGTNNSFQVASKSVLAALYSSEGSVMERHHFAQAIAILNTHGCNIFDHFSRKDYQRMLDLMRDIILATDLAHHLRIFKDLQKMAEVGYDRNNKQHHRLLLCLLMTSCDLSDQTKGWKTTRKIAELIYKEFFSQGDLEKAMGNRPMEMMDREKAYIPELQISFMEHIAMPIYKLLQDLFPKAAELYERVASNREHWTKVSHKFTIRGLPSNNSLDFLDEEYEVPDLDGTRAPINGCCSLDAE
T2 sequence (Q15418 whole entry): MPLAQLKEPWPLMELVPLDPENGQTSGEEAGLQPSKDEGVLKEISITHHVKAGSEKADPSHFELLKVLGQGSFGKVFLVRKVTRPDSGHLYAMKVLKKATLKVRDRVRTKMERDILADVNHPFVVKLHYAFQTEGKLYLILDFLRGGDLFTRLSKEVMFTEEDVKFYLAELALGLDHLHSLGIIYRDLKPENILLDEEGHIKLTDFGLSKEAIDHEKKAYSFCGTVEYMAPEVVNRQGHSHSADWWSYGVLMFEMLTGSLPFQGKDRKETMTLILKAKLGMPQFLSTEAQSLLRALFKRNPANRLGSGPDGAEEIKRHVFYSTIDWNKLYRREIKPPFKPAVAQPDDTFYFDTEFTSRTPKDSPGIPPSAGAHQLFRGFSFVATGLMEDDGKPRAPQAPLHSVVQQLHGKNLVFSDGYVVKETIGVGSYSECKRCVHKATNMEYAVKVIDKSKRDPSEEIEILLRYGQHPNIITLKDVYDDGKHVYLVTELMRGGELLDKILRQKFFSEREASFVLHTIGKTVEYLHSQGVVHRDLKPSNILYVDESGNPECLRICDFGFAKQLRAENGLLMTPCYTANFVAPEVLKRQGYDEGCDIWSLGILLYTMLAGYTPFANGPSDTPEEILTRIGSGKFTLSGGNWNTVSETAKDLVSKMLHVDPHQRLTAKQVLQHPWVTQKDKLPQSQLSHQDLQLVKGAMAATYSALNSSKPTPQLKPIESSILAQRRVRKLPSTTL

Turning to `c1cc(CC2CCOCC2)n2nc(Nc3ccc4c(NC5CCOCC5)n[nH]c4c3)nc2c1` [CC-509, [3-(2H-3,4,5,6-tetrahydropyran-4-ylamino)(1H-indazol-6-yl)][5-(2H-3,4,5,6-tetrahydropyran-4-ylmethyl)(2H-1,2,4-triazolo[1,5-a]pyridin-2-yl)]amine], the IC50 in assay [1] (Homo sapiens, Macrophage, mean ± SD, minimum n = 3, read-out: IC50, TNFα production induced by FcγR cross-linking) turned out to be 0.17 ± 0.12 µM; in assay [1] (Homo sapiens, Macrophage FcγR, curve shown in figure, read-out: IC50 printed in Fig 3A panel), 0.11 µM; in assay [2] (Homo sapiens, HWB Basophils FcεR, curve shown in figure, read-out: IC50 printed in Fig 3D panel), 1.61 µM; in assay [2] (human whole blood, mean ± SD, minimum n = 3, read-out: IC50, FcεR-dependent basophil activation (CD63)), 1.52 ± 1.05 µM; in assay [3] (Homo sapiens, Neutrophil) it was 3.27 ± 1.27 µM. The remaining activity at 3 µM at FGFR4_h amounted to 68%; at Rsk1_h, 60%. For the same compound, the FcεR-independent basophil activation entry in assay [2] (N-formyl-L-methionyl-L-leucyl-L-phenylalanine stimulation, data not shown) was “not affected”. Also, the results for the inhibition at 10 µM on PDE5 and against PDE2A were 90% and 89%, respectively.

In the case of `COc1cc(Nc2ncc(F)c(Nc3ccc4c(n3)NC(=O)C(C)(C)O4)n2)cc(OC)c1OC` [R406, reference compound], the half-maximal inhibitory concentration (IC50) in assay [1] (mean ± SD, minimum n = 3, read-out: IC50, TNFα production induced by FcγR cross-linking) was found to be 0.29 ± 0.16 µM; in assay [3], 1.04 ± 0.45 µM. Further, in assay [2] (human whole blood, mean ± SD, minimum n = 3), the “IC50, FcεR-dependent basophil activation (CD63)” value was “not active”.
